Measured values as given in publication PMC1769465, “Toxicity Assays in Nanodrops Combining Bioassay and Morphometric Endpoints” (PLoS ONE, 2007).
Where two headings read alike, the source gives them in different places.

What was measured:
[1] = system: HepG2 cells; set-up: method as in PMID 16111842; settings: read-out: IC50, MTT assay, cited from earlier work
[2] = system: HeLa cells; settings: cited from earlier work
[3] = system: HepG2 A10/hsp22 stress inducible clone; settings: for IC50: read-out: IC50 (Cell Number)
[4] = system: EGFP expressing stress inducible clones; set-up: method as in PMID 16492392; settings: 6 h toxic induction combined with a 12–18 h recovery period; read-out: IC50 in 96 well format assays; cited from earlier work
[5] = system: HepG2 A10/hsp22 stress inducible clone; assay: cells; format: cell-based, human
[6] = system: hsp22 promoter; settings: cited from earlier work
[7] = system: Drosophila melanogaster hsp22 promoter; format: cell-based; settings: for IC50: read-out: IC50 derived from KS curves, EGFP expression
[8] = system: HepG2 cells; set-up: method as in PMID 16111842; settings: read-out: IC50, neutral red quantification, cited from earlier work
[9] = system: HepG2 cells; settings: cited from earlier work
[10] = system: HepG2 A10/hsp22 stress inducible clone; assay: cells; settings: Homo sapiens, HepG2, read-out: IC50 (Cell Number)
[11] = […], linear regression, two independent experiments
[12] = calculated on Kolmogorov-Smirnov score curves
[13] = same stress inducible clones, 96-well format

In the case of `[Cl][Cd][Cl]` [CdCl2, Cadmium chloride], the IC50 ([1]; HepG2, 3 h exposure) is given as 500 µM, the IC50 ([1]; HepG2, 5 h exposure) is given as 100 µM and the IC50 ([1]; HepG2, 8 h exposure) is given as 40 µM. The IC50 ([1]; HepG2, 24 h exposure) was 15 µM, the CC50 [2] was 50 µM and the “doses giving an obvious decrease in cell number” value (from here on “doses giving an obvious decrease”) [3] was “greater than 20 µM”. For the same molecule, the IC50 [3, 11] was 83 µM, the IC50 [4] was 50 µM and the “concentrations causing a decrease in Shape Index” value ([5]; HepG2 A10 clone) was “above 20 µM”. The “IC50 for Shape Index” value [5, 11] was 32 µM, the IC50 ([5]; […], linear regression, two independent experiments, read-out: IC50 for Cell Area) was 29 µM and the IC50 ([5]; […], linear regression, two independent experiments, read-out: IC50 for Cell Roundness) was 52 µM. For the same molecule, the “IC50 derived from KS curves, Shape Index” value [5, 12] was 48 µM, the IC50 ([5]; calculated on Kolmogorov-Smirnov score curves, read-out: IC50 derived from KS curves, Cell Area) was 25 µM and the IC50 ([5]; calculated on Kolmogorov-Smirnov score curves, read-out: IC50 derived from KS curves, Roundness) was 60 µM. For the same molecule, the “Cell Area after toxic insult (cell shrinkage)” value (shortened to “Cell Area after toxic insult”) ([5]; decrease from around 900 µm^2) was “around 400 µm^2”, the “dose at which increase in Cell Roundness occurred” value ([5]; late dose, particularly with cadmium) was 100 µM and the induction windows ([6]; reported) was 10 to 100 µM. The “concentration over which promoter activity gradually decreased” value [6, 13] was “over 60 µM”, the “peak expression of EGFP (concentration)” value [6, 13] was “around 50 µM” and the “dose at which EGFP expression could be detected” value [7] was 50 µM. For the same molecule, the “dose at which hsp22 promoter activation (EGFP) disappeared” value [7] was 100 µM, the “dose of maximum activation of hsp22 promoter (EGFP expression)” value [7] was “around 50 µM” and the IC50 [7, 12] was 28 µM. The IC50 ([8]; HepG2, 5 h exposure) was 100 µM, the IC50 ([8]; HepG2, 8 h exposure) was 80 µM and the IC50 ([8]; HepG2, 24 h exposure) was 8 µM. For the same molecule, the “concentration that elicited mild (20–25%) cytotoxicity” value ([9]; HepG2, 24 h exposure) was 40 µM, the “concentration that elicited minimal (≤5%) cytotoxicity” value ([9]; HepG2, 24 h exposure) was 15 µM and the “concentration that elicited more severe (approximately 50%) cytotoxicity” value ([9]; HepG2, 24 h exposure) was 60 µM. For the same molecule, the IC50 ([9]; read-out: IC50 for cytotoxicity, HepG2, 24 h exposure) was 60 to 70 µM.
With `C[n+]1ccc(-c2cc[n+](C)cc2)cc1` [Paraquat] the “doses giving an obvious decrease” value ([3]; human) was “greater than 20 µM”, the IC50 ([5]; Homo sapiens, HepG2, 6 h, […], linear regression, two independent experiments, read-out: IC50 for Cell Area) was 44 µM and the “IC50 for Shape Index” value [5, 11] was 29 µM. For the same molecule, the “Shape Index effect (in words)” value ([5]; compared with Arsenate and Cadmium) was “did not induce as significant a decrease of this index”, the “Cell Roundness effect (in words)” value ([5]; compared with heavy metals) was “produced a less significant effect” and the “Cell Area after toxic insult” value ([5]; decrease from around 900 µm^2) was 700 µm^2. The IC50 [10] was 88 µM and the “EGFP expression with hsp22 promoter (in words)” value ([7]; HepG2 A10 clone, 0.5 µM to 1 mM) was “did not induce any significant EGFP expression”.
In the case of Sodium arsenate, the “doses giving an obvious decrease” value [3] is reported as “greater than 20 µM”, the IC50 [3] is reported as 85 µM and the “Cell Area after toxic insult” value [5] is reported as “around 400 µm^2”. The “IC50 derived from KS curves, Roundness” value [5] was “no significant Roundness effect”, the “IC50 derived from KS curves, Shape Index” value [5] was 32 µM and the “IC50 for Shape Index” value [5] was 24 µM. The “concentrations causing a decrease in Shape Index” value [5] was “above 20 µM”, the “dose after which Shape Index distribution was significantly different from control (KS)” value [5] was over 50 µM and the “dose at which Cell Area reached the KS score 0.2 threshold” value [5] was 5 µM. For the same molecule, the “dose at which increase in Cell Roundness occurred” value [5] was 100 µM, the IC50 ([5]; read-out: IC50 derived from KS curves, Cell Area) was 19 µM and the IC50 ([5]; read-out: IC50 for Cell Area) was 29 µM. The IC50 ([5]; read-out: IC50 for Cell Roundness) was 59 µM, the induction windows [6] was 10 to 100 µM and the “dose at which EGFP Grey Level reached the KS score 0.2 threshold” value [7] was 10 µM. For the same molecule, the “dose at which EGFP expression could be detected” value [7] was 20 µM, the “dose at which hsp22 promoter activation (EGFP) disappeared” value [7] was 100 µM and the IC50 [7] was 19 µM. For the same molecule, the IC50 [9] was 60 to 70 µM, the “concentration that elicited mild (20–25%) cytotoxicity” value [9] was 55 µM and the “concentration that elicited minimal (≤5%) cytotoxicity” value [9] was 15 µM. The “concentration that elicited more severe (approximately 50%) cytotoxicity” value [9] was 70 µM.
